Active and inactive are the calls of the source. The calls are words filed in the database; no cut-off is given here.
What was measured:
[1] = tested on: MDA-MB-468; experiment: Anticancer activity against human MDA-MB-468 cells assessed as lethality incubated for 48 hrs by SRB assay; format: functional; conditions: read-out: LC50 (the source's name)
[2] = tested on: MCF7; experiment: Anticancer activity against human MCF7 cells assessed as growth inhibition incubated for 48 hrs by SRB assay; format: functional
[3] = tested on: SK-OV-3; experiment: Anticancer activity against human SK-OV-3 cells assessed as growth inhibition incubated for 48 hrs by SRB assay; format: functional
[4] = tested on: SNB-19; experiment: Anticancer activity against human SNB-19 cells assessed as lethality incubated for 48 hrs by SRB assay; format: functional; conditions: read-out: LC50 (the source's name)
[5] = tested on: HCC 2998; experiment: Anticancer activity against human HCC 2998 cells assessed as growth inhibition incubated for 48 hrs by SRB assay; format: functional
[6] = tested on: HCC 2998; experiment: Anticancer activity against human HCC 2998 cells assessed as inhibition of cell growth at 10 uM incubated for 48 hrs by SRB assay; format: functional; conditions: HCC 2998, 48 h, values are per cent of control
[7] = tested on: SW-620; experiment: Anticancer activity against human SW-620 cells assessed as total growth inhibition incubated for 48 hrs by SRB assay; format: functional
[8] = tested on: EKVX; experiment: Anticancer activity against human EKVX cells assessed as growth inhibition incubated for 48 hrs by SRB assay; format: functional
[9] = tested on: MCF7; experiment: Anticancer activity against human MCF7 cells assessed as total growth inhibition incubated for 48 hrs by SRB assay; format: functional
[10] = tested on: Hs-578T; experiment: Anticancer activity against human Hs-578T cells assessed as total growth inhibition incubated for 48 hrs by SRB assay; format: functional
[11] = tested on: U-251; experiment: Anticancer activity against human U-251 cells assessed as growth inhibition incubated for 48 hrs by SRB assay; format: functional
[12] = tested on: MCF7; experiment: Anticancer activity against human MCF7 cells assessed as lethality incubated for 48 hrs by SRB assay; format: functional; conditions: read-out: LC50 (the source's name)
[13] = tested on: EKVX; experiment: Anticancer activity against human EKVX cells assessed as lethality incubated for 48 hrs by SRB assay; format: functional; conditions: read-out: LC50 (the source's name)
[14] = tested on: NCI-H23; experiment: Anticancer activity against human NCI-H23 cells assessed as growth inhibition incubated for 48 hrs by SRB assay; format: functional
[15] = tested on: SNB-19; experiment: Anticancer activity against human SNB-19 cells assessed as total growth inhibition incubated for 48 hrs by SRB assay; format: functional
[16] = tested on: SK-OV-3; experiment: Anticancer activity against human SK-OV-3 cells assessed as total growth inhibition incubated for 48 hrs by SRB assay; format: functional
[17] = tested on: SK-MEL-2; experiment: Anticancer activity against human SK-MEL-2 cells assessed as growth inhibition incubated for 48 hrs by SRB assay; format: functional
[18] = tested on: HOP-62; experiment: Anticancer activity against human HOP-62 cells assessed as lethality incubated for 48 hrs by SRB assay; format: functional; conditions: read-out: LC50 (the source's name)
[19] = Selectivity index, ratio of GI50 for human HaCaT cells to GI50 for human KB 3-1 cells; format: toxicity; conditions: HaCaT cells versus KB 3-1 cells, read-out: RatioGI50
[20] = tested on: NCI-H322M; experiment: Anticancer activity against human NCI-H322M cells assessed as growth inhibition incubated for 48 hrs by SRB assay; format: functional
[21] = tested on: BT-549; experiment: Anticancer activity against human BT-549 cells assessed as total growth inhibition incubated for 48 hrs by SRB assay; format: functional
[22] = tested on: KM12; experiment: Anticancer activity against human KM12 cells assessed as lethality incubated for 48 hrs by SRB assay; format: functional; conditions: read-out: LC50 (the source's name)
[23] = tested on: NCI-H460; experiment: Anticancer activity against human NCI-H460 cells assessed as lethality incubated for 48 hrs by SRB assay; format: functional; conditions: read-out: LC50 (the source's name)
[24] = tested on: MOLT-4; experiment: Anticancer activity against human MOLT-4 cells assessed as total growth inhibition incubated for 48 hrs by SRB assay; format: functional
[25] = tested on: UO-31; experiment: Anticancer activity against human UO-31 cells assessed as inhibition of cell growth at 10 uM incubated for 48 hrs by SRB assay; format: functional; conditions: UO-31, 48 h, values are per cent of control
[26] = tested on: BT-549; experiment: Anticancer activity against human BT-549 cells assessed as lethality incubated for 48 hrs by SRB assay; format: functional; conditions: read-out: LC50 (the source's name)
[27] = Selectivity index, ratio of GI50 for human HaCaT cells to GI50 for human MCF7 cells; format: toxicity; conditions: HaCaT cells versus MCF7 cells, read-out: RatioGI50
[28] = tested on: SN12C; experiment: Anticancer activity against human SN12C cells assessed as growth inhibition incubated for 48 hrs by SRB assay; format: functional
[29] = tested on: UACC-257; experiment: Anticancer activity against human UACC-257 cells assessed as total growth inhibition incubated for 48 hrs by SRB assay; format: functional
[30] = tested on: MDA-MB-231; experiment: Anticancer activity against human MDA-MB-231 cells assessed as lethality incubated for 48 hrs by SRB assay; format: functional; conditions: read-out: LC50 (the source's name)
[31] = tested on: NCI-H522; experiment: Anticancer activity against human NCI-H522 cells assessed as lethality incubated for 48 hrs by SRB assay; format: functional; conditions: read-out: LC50 (the source's name)
[32] = tested on: Hs-578T; experiment: Anticancer activity against human Hs-578T cells assessed as lethality incubated for 48 hrs by SRB assay; format: functional; conditions: read-out: LC50 (the source's name)
[33] = Cytotoxicity against human HaCaT cells assessed as cell growth inhibition incubated for 72 hrs by MTT assay; format: toxicity, cell-based
[34] = tested on: PC-3; experiment: Anticancer activity against human PC-3 cells assessed as total growth inhibition incubated for 48 hrs by SRB assay; format: functional
[35] = tested on: SF-268; experiment: Anticancer activity against human SF-268 cells assessed as lethality incubated for 48 hrs by SRB assay; format: functional; conditions: read-out: LC50 (the source's name)
[36] = tested on: MOLT-4; experiment: Anticancer activity against human MOLT-4 cells assessed as lethality incubated for 48 hrs by SRB assay; format: functional; conditions: read-out: LC50 (the source's name)
[37] = tested on: K562; experiment: Anticancer activity against human K562 cells assessed as growth inhibition incubated for 48 hrs by SRB assay; format: functional
[38] = tested on: OVCAR-8; experiment: Anticancer activity against human OVCAR-8 cells assessed as growth inhibition incubated for 48 hrs by SRB assay; format: functional
[39] = tested on: Jurkat; experiment: Induction of morphological changes in human Jurkat cells assessed as chromatin fragmentation incubated for 24 hrs by Hoechst 33258 and propidium iodide staining based fluorescence microscopy; format: functional, cell-based
[40] = Selectivity index, ratio of GI50 for human HaCaT cells to GI50 for human A549 cells; format: toxicity; conditions: HaCaT cells versus A549 cells, read-out: RatioGI50
[41] = tested on: ACHN; experiment: Anticancer activity against human ACHN cells assessed as growth inhibition incubated for 48 hrs by SRB assay; format: functional
[42] = tested on: COLO 205; experiment: Anticancer activity against human COLO 205 cells assessed as lethality incubated for 48 hrs by SRB assay; format: functional; conditions: read-out: LC50 (the source's name)
[43] = tested on: T47D; experiment: Anticancer activity against human T47D cells assessed as lethality incubated for 48 hrs by SRB assay; format: functional; conditions: read-out: LC50 (the source's name)
[44] = tested on: MCF7; experiment: Anticancer activity against human MCF7 cells assessed as cell growth inhibition incubated for 72 hrs by MTT assay; format: functional
[45] = tested on: TK-10; experiment: Anticancer activity against human TK-10 cells assessed as growth inhibition incubated for 48 hrs by SRB assay; format: functional
[46] = tested on: HOP-92; experiment: Anticancer activity against human HOP-92 cells assessed as growth inhibition incubated for 48 hrs by SRB assay; format: functional
[47] = tested on: SF-295; experiment: Anticancer activity against human SF-295 cells assessed as lethality incubated for 48 hrs by SRB assay; format: functional; conditions: read-out: LC50 (the source's name)
[48] = tested on: M14; experiment: Anticancer activity against human M14 cells assessed as growth inhibition incubated for 48 hrs by SRB assay; format: functional
[49] = tested on: RXF 393; experiment: Anticancer activity against human RXF 393 cells assessed as growth inhibition incubated for 48 hrs by SRB assay; format: functional

## O=C1CC(N2C(=O)/C(=C/C(Cl)=C/c3ccc([N+](=O)[O-])cc3)SC2=S)C(=O)N1c1ccc(Cl)cc1 (stereo not drawn)
[1]
  CC50: 7.22 µM
[2]
  GI50: 1.38 µM
[3]
  GI50: 3.56 µM
[4]
  CC50: 7.54 µM
[5]
  GI50: 1.59 µM
[6]
  growth, % of control at 10 µM: -22.9%
[7]
  TGI: 3.9 µM
[8]
  GI50: 3.11 µM
[9]
  TGI: > 100 µM
[10]
  TGI: > 100 µM
[11]
  GI50: 0.477 µM
[12]
  CC50: > 100 µM
[13]
  CC50: > 100 µM
[14]
  GI50: 1.64 µM
[15]
  TGI: 2.97 µM
[16]
  TGI: > 100 µM
[17]
  GI50: 3.12 µM
[18]
  CC50: > 100 µM
[19]
  selectivity ratio: 1.42
[20]
  GI50: 3 µM
[21]
  TGI: 3.74 µM
[22]
  CC50: > 100 µM
[23]
  CC50: > 100 µM
[24]
  TGI: 13.4 µM
[25]
  growth, % of control at 10 µM: -42.9%
[26]
  CC50: 8 µM
[27]
  selectivity ratio: 12.6
[28]
  GI50: 1.69 µM
[29]
  TGI: 66.5 µM
[30]
  CC50: > 100 µM
[31]
  CC50: 14.1 µM
[32]
  CC50: > 100 µM
[33]
  GI50 at 72 h: > 100 µM
[34]
  TGI: 4.15 µM
[35]
  CC50: > 100 µM
[36]
  CC50: 62.6 µM
[37]
  GI50: 0.692 µM
[38]
  GI50: 0.832 µM
[39]
  Activity: Active
[40]
  selectivity ratio: 1.56
[41]
  GI50: 1.34 µM
[42]
  CC50: > 100 µM
[43]
  CC50: > 100 µM
[44]
  GI50: 7.95 µM
[45]
  GI50: 2.79 µM
[46]
  GI50: 2.58 µM
[47]
  CC50: 7.51 µM
[48]
  GI50: 2.11 µM
[49]
  GI50: 1.26 µM

## O=C1CC(N2C(=O)/C(=C/C(Cl)=C/c3ccc([N+](=O)[O-])cc3)SC2=S)C(=O)N1c1ccc(O)cc1 (stereo not drawn)
[1]
  CC50: > 100 µM
[2]
  GI50: 1.21 µM
[3]
  GI50: 2.99 µM
[4]
  CC50: 8.97 µM
[5]
  GI50: 1.48 µM
[6]
  growth, % of control at 10 µM: -81.6%
[7]
  TGI: 2.28 µM
[8]
  GI50: 3.25 µM
[9]
  TGI: 10.7 µM
[10]
  TGI: 12.6 µM
[11]
  GI50: 0.597 µM
[12]
  CC50: > 100 µM
[13]
  CC50: 35.3 µM
[14]
  GI50: 1.56 µM
[15]
  TGI: 3.47 µM
[16]
  TGI: 9.26 µM
[17]
  GI50: 2.74 µM
[18]
  CC50: > 100 µM
[19]
  selectivity ratio: 9.2
[20]
  GI50: 2.34 µM
[21]
  TGI: 4.21 µM
[22]
  CC50: 15.8 µM
[23]
  CC50: 39.5 µM
[24]
  TGI: 15.3 µM
[25]
  growth, % of control at 10 µM: -75.2%
[26]
  CC50: 8.72 µM
[27]
  selectivity ratio: 18.4
[28]
  GI50: 1.6 µM
[29]
  TGI: 9.12 µM
[30]
  CC50: 15.9 µM
[31]
  CC50: 9.65 µM
[32]
  CC50: > 100 µM
[33]
  GI50 at 72 h: 73.6 µM
[34]
  TGI: 2.87 µM
[35]
  CC50: 47.1 µM
[36]
  CC50: > 100 µM
[37]
  GI50: 0.603 µM
[38]
  GI50: 2.16 µM
[39]
  Activity: Active
[40]
  selectivity ratio: 10.2
[41]
  GI50: 1.36 µM
[42]
  CC50: 56 µM
[43]
  CC50: > 100 µM
[44]
  GI50: 4 µM
[45]
  GI50: 1.92 µM
[46]
  GI50: 1.62 µM
[47]
  CC50: 5.54 µM
[48]
  GI50: 1.46 µM
[49]
  GI50: 1.53 µM

From ChEMBL document CHEMBL5113392, “Novel hybrid pyrrolidinedione-thiazolidinones as potential anticancer agents: Synthesis and biological evaluation” (Eur J Med Chem, 2022)
